Measurements: US11319289B2, “5-hydroxy pyridine-based compound for use as P2X1 and P2X3 receptor antagonist and pharmaceutical composition comprising same” (GWANGJU INSTITUTE OF SCIENCE AND TECHNOLOGY, priority 2017, dated 2022)

Tests used:
CYP450 2C9 = target: T1, CYP450 2C9 (Homo sapiens, UniProt P11712); assay: CYP inhibition assay (Vivid fluorometric), 2C9; assay type: biochemical; settings: 1 μM in Table 5
T1 construct: purchased Invitrogen
Protocol: (§1) CYP450 (1A2, 2C9, 3A4) enzyme assay was performed by a fluorometric assay using a Vivid® CYP450 screening kit (Invitrogen, USA, CA) in a 96-well black plate according to manufacturer's instructions with some modifications. The assay was performed at room temperature, and the final assay volume was 100 μL. […]
(§2) A master pre-mixture (enzyme (0.5 nmol recombinant human CYP450 enzyme)/NADP regeneration solution (333 mM glucose-6-phosphate dissolved, 30 U/mL glucose-6-phosphate dehydrogenase in 100 mM KH2PO4 solution at pH 8.0)) was prepared as a CYP450 reaction buffer (200 mM KH2PO4, pH 8.0). The master pre-mixture was added to each well of the 96 well plate, followed by the vehicle DMSO (control) and test compounds, and the mixture was preincubated for 10 minutes in the plate for background reading. Subsequently, the enzyme reaction was immediately initiated through the addition of CYP450 substrate/NADP^+ mixture. After incubation for 40 minutes, the fluorescence of the product was measured with a CHAMELEON™ multi-technology plate reader (2C9, 3A4: excitation wavelength of 530 nm and emission wavelength of 590 nm, 1A2: excitation wavelength of 415 nm and emission wavelength of 460 nm). The effect of the test compounds on CYP450 (1A2, 2C9, 3A4) was expressed as the percentage of enzyme activity.

CYP1A2 = target: T2, CYP1A2 (Homo sapiens, UniProt P05177); assay: CYP inhibition assay (Vivid fluorometric), 1A2; assay type: biochemical; settings: human, recombinant human CYP1A2, pH 8; 1 μM in Table 5; read-out: CYP450 inhibition, 1A2 isozyme
T2 construct: purchased Invitrogen
T2 sequence (P05177 1-516): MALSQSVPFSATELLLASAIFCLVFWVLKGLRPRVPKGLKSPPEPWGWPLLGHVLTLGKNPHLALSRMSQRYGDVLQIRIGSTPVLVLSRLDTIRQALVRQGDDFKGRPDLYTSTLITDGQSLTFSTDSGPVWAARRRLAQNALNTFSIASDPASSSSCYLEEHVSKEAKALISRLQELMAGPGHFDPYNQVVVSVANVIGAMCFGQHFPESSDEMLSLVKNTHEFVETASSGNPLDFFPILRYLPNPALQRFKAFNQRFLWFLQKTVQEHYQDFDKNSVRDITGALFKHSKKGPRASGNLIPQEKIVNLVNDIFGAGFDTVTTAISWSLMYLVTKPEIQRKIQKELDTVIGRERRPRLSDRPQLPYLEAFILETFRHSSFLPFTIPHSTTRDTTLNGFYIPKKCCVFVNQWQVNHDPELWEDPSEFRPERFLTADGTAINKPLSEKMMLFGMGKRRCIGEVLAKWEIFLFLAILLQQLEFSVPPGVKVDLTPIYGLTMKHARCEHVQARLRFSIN
Protocol: as §1, §2

CYP450 1A2 = target: T3, CYP450 1A2 (Homo sapiens, UniProt P05177); assay: CYP inhibition assay (Vivid fluorometric), 1A2; assay type: biochemical; settings: 1 μM in Table 5
T3 construct: purchased Invitrogen
T3 sequence (P05177 1-516): T2 sequence (P05177 1-516)
Protocol: as §1, §2

hERG K+ channel = target: T4, hERG K+ channel (Homo sapiens, UniProt Q12809); assay: hERG K+ channel patch-clamp assay in CHO-K1 Tet-On hERG cells; assay type: cell-based
T4 construct: host or cells: CHO-K1 Tet-On hERG cells
Protocol: 2-2. hERF Channel Test Method
hERG K^+ Channel Conventional Patch-Clamp Assay
CHO-K1 cells expressing hERG channels via an inducible Tet-On gene expression system (CHO-K1 Tet-On hERG cells) were purchased from IonGate Biosciences GmbH (Frankfurt, Germany). CHO-K1 Tet-On hERG cells were incubated in Dulbecco's modified Eagle's medium (DMEM) containing 10% (v/v) fetal bovine serum, penicillin (100 U/mL), streptomycin (100 μg/mL), fungizone (2.5 μg/mL), as well as selection antibiotics, geneticin G418 (200 μg/mL), hygromycin (200 μg/mL) and puromycin (2 μg/mL) in a humidified condition of 5% CO2 at 37° C. The cells were passaged by treatment with trypsin-EDTA every three days. […]
NPC-16 Patchliner (Nanion Technologies, Munchen, Germany), an automated patch-clamp apparatus, was used for the whole-cell recordings. Whole-cell currents were recorded using an intracellular solution (unit in mM) containing 50 KCl, 60 KF, 10 NaCl, 2 MgCl2, 20 EGTA and 10 HEPES (pH 7.2) and an extracellular solution (unit in mM) containing 140 NaCl, 4 KCl, 2 CaCl2, 1MgCl2, 5 glucose and 10 HEPES (pH 7.4). […]
hERG channel currents were recorded using a parallel EPC-10 patch clamp amplifier (HEKA Elektronik, Lambrecht/Pfalz, Germany), and low-pass filtering (10 kHz) was performed with a 4-pole Bessel filter. […]

T4 sequence (Q12809 whole entry): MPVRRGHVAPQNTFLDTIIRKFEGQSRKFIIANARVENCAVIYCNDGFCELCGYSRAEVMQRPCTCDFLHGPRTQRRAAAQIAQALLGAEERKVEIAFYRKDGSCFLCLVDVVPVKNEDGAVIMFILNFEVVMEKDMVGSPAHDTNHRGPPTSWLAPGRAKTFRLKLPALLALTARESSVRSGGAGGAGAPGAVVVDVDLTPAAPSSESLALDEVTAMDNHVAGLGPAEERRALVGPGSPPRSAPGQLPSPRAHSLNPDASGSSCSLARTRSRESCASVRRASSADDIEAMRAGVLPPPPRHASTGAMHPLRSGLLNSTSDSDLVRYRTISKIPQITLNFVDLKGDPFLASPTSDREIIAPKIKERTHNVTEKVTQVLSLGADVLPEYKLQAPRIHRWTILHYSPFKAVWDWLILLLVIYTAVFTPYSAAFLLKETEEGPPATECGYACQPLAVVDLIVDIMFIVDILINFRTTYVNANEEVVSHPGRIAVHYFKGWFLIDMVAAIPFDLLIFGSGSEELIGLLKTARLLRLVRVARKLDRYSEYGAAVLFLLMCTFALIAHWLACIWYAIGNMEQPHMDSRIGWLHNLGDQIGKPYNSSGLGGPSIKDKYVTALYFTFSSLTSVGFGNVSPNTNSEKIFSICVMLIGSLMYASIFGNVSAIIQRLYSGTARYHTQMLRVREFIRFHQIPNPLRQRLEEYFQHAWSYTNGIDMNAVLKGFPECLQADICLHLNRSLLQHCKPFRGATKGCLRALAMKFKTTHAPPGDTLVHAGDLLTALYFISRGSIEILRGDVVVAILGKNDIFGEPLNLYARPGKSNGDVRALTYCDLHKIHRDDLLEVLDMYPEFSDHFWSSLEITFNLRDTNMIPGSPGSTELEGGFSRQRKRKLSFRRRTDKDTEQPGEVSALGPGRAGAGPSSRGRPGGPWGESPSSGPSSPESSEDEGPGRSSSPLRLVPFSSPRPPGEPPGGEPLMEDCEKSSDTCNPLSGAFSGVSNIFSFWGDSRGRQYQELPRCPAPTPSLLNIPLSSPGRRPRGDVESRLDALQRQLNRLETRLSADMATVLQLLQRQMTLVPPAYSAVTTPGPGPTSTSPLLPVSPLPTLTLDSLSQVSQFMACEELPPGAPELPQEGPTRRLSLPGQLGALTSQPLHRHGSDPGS
T1 sequence (P11712 whole entry): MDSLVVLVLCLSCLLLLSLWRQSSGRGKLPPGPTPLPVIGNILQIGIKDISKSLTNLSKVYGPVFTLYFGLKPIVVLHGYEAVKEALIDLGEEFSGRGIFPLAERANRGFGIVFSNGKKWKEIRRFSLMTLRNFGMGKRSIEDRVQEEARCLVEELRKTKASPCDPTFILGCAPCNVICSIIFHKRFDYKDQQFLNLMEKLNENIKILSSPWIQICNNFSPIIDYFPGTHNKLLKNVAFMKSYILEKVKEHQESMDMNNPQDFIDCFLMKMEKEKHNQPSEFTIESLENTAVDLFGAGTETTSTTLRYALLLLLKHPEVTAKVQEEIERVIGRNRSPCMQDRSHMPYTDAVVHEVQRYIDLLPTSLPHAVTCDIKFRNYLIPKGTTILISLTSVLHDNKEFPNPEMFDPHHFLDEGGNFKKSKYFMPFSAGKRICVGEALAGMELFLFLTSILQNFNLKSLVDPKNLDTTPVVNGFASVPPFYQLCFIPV

For `CCCc1nc(Cc2cccc(Oc3ccccc3)c2)c(C)c(C(=O)O)c1O` [Compound 29, 3-Hydroxy-5-methyl-6-(3-phenoxybenzyl)-2-propylisonicotinic acid], the “CYP450 inhibition, 2C9 isozyme” value (CYP450 2C9) was “weak inhibitory effect”, the inhibition at 40 min, 1 µM (CYP1A2) was 36 ± 3% and the “CYP450 inhibition, 1A2 isozyme” value (CYP450 1A2) was “weak inhibitory effect”. The IC50 (hERG K+ channel; patch clamp, CHO-K1 Tet-On hERG cells) was greater than 100 µM and the “in vitro inhibitory activity against hERG channels” value (hERG K+ channel; result in words) was “did not show any inhibitory activity”.
